Laboratory results taken from patent publication US20250154170A1, “FUSED PYRIMIDINES AS KRAS INHIBITORS” (priority 2022, published 2025).
“And” between values parts separate entries of the source, which are not always exact repeats. Identical values can stand only once.

Columns and labels:
K-Ras G12D = K-Ras G12D (Homo sapiens, UniProt P01116, G12D); test: K-Ras G12D activation by SOS1 (KRAS G12D activation by SOS1cat assay, HTRF); assay type: biochemical; conditions: mean, SOS1cat mediated loading of GST-KRAS G12D-GDP with fluorescent GTP analogue, read-out: K-Ras G12D activation by SOS1 IC50 - [mol/l] (mean)
Sequence of K-Ras G12D (P01116 1-188 isoform P01116-2 G12D): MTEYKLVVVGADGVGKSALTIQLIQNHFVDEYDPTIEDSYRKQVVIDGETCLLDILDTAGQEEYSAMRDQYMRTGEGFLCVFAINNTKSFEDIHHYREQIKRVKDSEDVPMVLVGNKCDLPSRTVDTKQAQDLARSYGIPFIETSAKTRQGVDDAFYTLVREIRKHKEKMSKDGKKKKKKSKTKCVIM
Protocol: (§1) Preparation of test compound dilutions. A 100-fold concentrated solution of the test compound (50 nL) in DMSO was transferred to microtiter test plates (384 or 1,536 wells, Greiner Bio-One, Germany) using either a Hummingbird liquid handler (Digilab, MA, USA) or an Echo acoustic system (Labcyte, CA, USA). Plates were sealed with adhesive foil or heat-sealed and stored at −20 C until use. Serial dilutions of test compounds were prepared in 100% DMSO using a Precision Pipetting System (BioTek, USA).
(§2) Measurement and evaluation of inhibition data, calculation of IC50 values. Homogeneous time-resolved fluorescence (HTRF) was measured with a PHERAstar reader (BMG, Germany) using the HTRF module (excitation: 337 nm; emission 1: 620 nm, emission 2: 665 nm). The ratio of the emissions at 665 and 620 nm was used as the specific signal for further evaluation. The data were normalized using the controls: DMSO=0% inhibition, inhibition control wells with inhibitor control solution=100% inhibition. Compounds were tested in duplicates at up to 11 concentrations (e.g. 20 μM, 5.7 μM, 1.6 μM, 0.47 μM, 0.13 μM, 38 nM, 11 nM, 3.1 nM, 0.89 nM, 0.25 nM and 0.073 nM). IC50 values were calculated using a four-parameter fit, with a commercial software package (Genedata Screener, Switzerland).
(§3) KRAS^G12C activation by SOS1^cat assay (“On-assay”). This assay quantifies SOS1^cat mediated loading of KRAS^G12C-GDP with a fluorescent GTP analogue. Detection of successful loading was achieved by measuring resonance energy transfer from anti-GST-terbium (FRET donor) bound to GST-KRAS^G12C to the loaded fluorescent GTP analogue (FRET acceptor). The fluorescent GTP analogue EDA-GTP-DY-647P1 [2′/3′-O-(2-aminoethyl-carbamoyl)guanosine-5′-triphosphate labelled with DY-647P1 (Dyomics GmbH, Germany)] was synthesized by Jena Bioscience (Germany) and supplied as a 1 mM aqueous solution. A KRAS^G12C working solution was prepared in assay buffer [10 mM HEPES pH 7.4 (AppliChem), 150 mM NaCl (Sigma), 5 mM MgCl2 (Sigma), 1 mM DTT (Thermo Fisher), 0.05% BSA Fraction V pH 7.0 (ICN Biomedicals), 0.0025% (v/v) Igepal (Sigma)] containing GST-KRAS^G12C (final concentration in assay 50 nM) and anti-GST-terbium (Cisbio, France) (final concentration in assay 1 nM). A SOS1^cat working solution was prepared in assay buffer containing SOS1^cat (final concentration 10 nM) and EDA-GTP-DY-647P1 (final concentration 100 nM). An inhibitor control solution was prepared in assay buffer containing EDA-GTP-DY-647P1 (final concentration 100 nM) without SOS1^cat. All steps of the assay were performed at 20° C. A volume of 3 μL of the KRAS^G12C working solution was added to all wells of the test plate using a Multidrop dispenser (Thermo LabSystems). After 15 min, 2 μL of the SOS1^ct working solution was added to all wells, except for the inhibitor control solution wells. After 30 min incubation, HTRF was measured.
(§4) G12D and Wild-type KRAS activation by SOS1cat assays. These assays quantify human SOS1^cat mediated loading of wild-type GST-KRAS^WT-GDP or GST-KRAS^G12D-GDP with a fluorescent GTP analogue. The assay was performed similarly to the KRAS^G12C activation by SOS1^cat assay with the following differences: final concentration of SOS1^cat of 60 nM and final incubation time before measurement of 10 min for KRAS^G12D assay, final concentration of SOS1^cat of 20 nM and final incubation time before measurement of 15 min for wild-type KRAS assay, respectively. GST-KRAS^G12C was replaced by GST-KRAS^WT or GST-KRAS^G12D, respectively, also at 50 nM final concentration.
KRAS^G12D activation by SOS1^cat assay (“On-assay”). This assay quantifies SOS1^cat mediated loading of KRAS^G12D-GDP with a fluorescent GTP analogue. Detection of successful loading was achieved by measuring resonance energy transfer from anti-GST-terbium (FRET donor) bound to GST-KRAS^G12D to the loaded fluorescent GTP analogue (FRET acceptor).

K-Ras-wildtype = K-Ras-wildtype (Homo sapiens, UniProt P01116); test: K-Ras-wildtype activation by SOS1 (wild-type KRAS activation by SOS1cat assay, HTRF); assay type: biochemical; conditions: mean, SOS1cat mediated loading of wild-type GST-KRAS-GDP with fluorescent GTP analogue, read-out: K-Ras-wildtype activation by SOS1 IC50 - [mol/l] (mean)
Sequence of K-Ras-wildtype (P01116 1-188 isoform P01116-2): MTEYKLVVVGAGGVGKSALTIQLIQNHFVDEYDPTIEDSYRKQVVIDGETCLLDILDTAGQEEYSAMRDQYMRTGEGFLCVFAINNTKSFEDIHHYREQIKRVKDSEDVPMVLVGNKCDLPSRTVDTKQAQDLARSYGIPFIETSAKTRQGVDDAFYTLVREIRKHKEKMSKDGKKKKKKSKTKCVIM
Protocol: as §1, §2, §3, §4
Wild-type KRAS activation by SOS1^cat assay. This assay quantifies human SOS1^cat mediated loading of wild-type GST-KRAS-GDP with a fluorescent GTP analogue. The assay was performed similarly to the KRAS^G12D activation by SOS1^cat assay just by replacement of GST-KRAS^G12D by wild-type GST-KRAS while concentrations of all components and incubation times were the same.

## C#Cc1c(F)ccc2cc(O)cc(Oc3nc4c(N5CC6CCC(C5)NC6)nc(OC[C@@]56CCCN5C[C@H](F)C6)nc4s3)c12 (relative stereo) [Example 16, 4-[(7-[(1R*,5R*)-3,6-diazabicyclo[3.2.2]nonan-3-yl]-5-{[(2R,7aS)-2-fluorotetrahydro-1H-pyrrolizin-7a(5H)-yl]methoxy}[1,3]thiazolo[5,4-d]pyrimidin-2-yl)oxy]-5-ethynyl-6-fluoronaphthalen-2-ol]
K-Ras G12D
  IC50: 15.2 nM
K-Ras-wildtype
  IC50: 212 nM

## C#Cc1c(F)ccc2cc(O)cc(Oc3nc4c(N5CC6CCC(C5)NC6)nc(OC[C@@]56CCCN5C[C@H](F)C6)nc4s3)c12 (single isomer, unassigned) [Example 20, 4-[(7-[(1R*,5R*)-3,6-diazabicyclo[3.2.2]nonan-3-yl]-5-{[(2R,7aS)-2-fluorotetrahydro-1H-pyrrolizin-7a(5H)-yl]methoxy}[1,3]thiazolo[5,4-d]pyrimidin-2-yl)oxy]-5-ethynyl-6-fluoronaphthalen-2-ol]
K-Ras G12D
  IC50: 8.11 nM
K-Ras-wildtype
  IC50: 405 nM

## C#Cc1c(F)ccc2cc(O)cc(Oc3nc4c(N5CC6CCC(C5)NC6)nc(OC[C@@]56CCCN5C[C@H](F)C6)nc4s3)c12 (single isomer, unassigned) [Example 21, 4-[(7-[(1S*,5S*)-3,6-diazabicyclo[3.2.2]nonan-3-yl]-5-{[(2R,7aS)-2-fluorotetrahydro-1H-pyrrolizin-7a(5H)-yl]methoxy}[1,3]thiazolo[5,4-d]pyrimidin-2-yl)oxy]-5-ethynyl-6-fluoronaphthalen-2-ol]
K-Ras G12D
  IC50: 219 nM
K-Ras-wildtype
  IC50: 182 nM

## C#Cc1c(F)ccc2cc(O)cc(Oc3nc4c(N5C[C@H]6CC(F)[C@@H](C5)N6)nc(OC[C@@]56CCCN5C[C@H](F)C6)nc4s3)c12 (single isomer, unassigned) [Example 24, 5-Ethynyl-6-fluoro-4-[(7-[(1R*,5R*)-6-fluoro-3,8-diazabicyclo[3.2.1]octan-3-yl]-5-{[(2R,7aS)-2-fluorotetrahydro-1H-pyrrolizin-7a(5H)-yl]methoxy}[1,3]thiazolo[5,4-d]pyrimidin-2-yl)oxy]naphthalen-2-ol]
K-Ras G12D
  IC50: 26.7 nM
K-Ras-wildtype
  IC50: 24.1 nM

## C#Cc1c(F)ccc2cc(O)cc(Oc3nc4c(N5C[C@H]6CC(F)[C@@H](C5)N6)nc(OC[C@@]56CCCN5C[C@H](F)C6)nc4s3)c12 (single isomer, unassigned) [Example 25, 5-Ethynyl-6-fluoro-4-[(7-[(1R*,5R*)-6-fluoro-3,8-diazabicyclo[3.2.1]octan-3-yl]-5-{[(2R,7aS)-2-fluorotetrahydro-1H-pyrrolizin-7a(5H)-yl]methoxy}[1,3]thiazolo[5,4-d]pyrimidin-2-yl)oxy]naphthalen-2-ol]
K-Ras G12D
  IC50: 18.7 nM
K-Ras-wildtype
  IC50: 69.9 nM

## C#Cc1c(F)ccc2cc(O)cc(Oc3nc4c(N5C[C@H]6CC(F)[C@@H](C5)N6)nc(OC[C@@]56CCCN5C[C@H](F)C6)nc4s3)c12 (single isomer, unassigned) [Example 26, 5-Ethynyl-6-fluoro-4-[(7-[(1R*,5R*)-6-fluoro-3,8-diazabicyclo[3.2.1]octan-3-yl]-5-{[(2R,7aS)-2-fluorotetrahydro-1H-pyrrolizin-7a(5H)-yl]methoxy}[1,3]thiazolo[5,4-d]pyrimidin-2-yl)oxy]naphthalen-2-ol]
K-Ras G12D
  IC50: 26.3 nM
K-Ras-wildtype
  IC50: 25.9 nM

## C#Cc1c(F)ccc2cc(O)cc(Oc3nc4c(N5C[C@H]6CC(F)[C@@H](C5)N6)nc(OC[C@@]56CCCN5C[C@H](F)C6)nc4s3)c12 (single isomer, unassigned) [Example 27, 5-Ethynyl-6-fluoro-4-[(7-[(1R*,5R*)-6-fluoro-3,8-diazabicyclo[3.2.1]octan-3-yl]-5-{[(2R,7aS)-2-fluorotetrahydro-1H-pyrrolizin-7a(5H)-yl]methoxy}[1,3]thiazolo[5,4-d]pyrimidin-2-yl)oxy]naphthalen-2-ol]
K-Ras G12D
  IC50: 23.7 nM
K-Ras-wildtype
  IC50: 91.2 nM

## C#Cc1c(F)ccc2cc(O)cc(Oc3nc4c(N5CC6CCC(C5)N6)nc(OC[C@@]56CCCN5CC(F)C6)nc4s3)c12 (stereo in doubt) [Example 6, 4-{[7-(3,8-diazabicyclo[3.2.1]octan-3-yl)-5-{[(2R,7aS)-2-fluorotetrahydro-1H-pyrrolizin-7a(5H)-yl]methoxy}[1,3]thiazolo[5,4-d]pyrimidin-2-yl]oxy}-5-ethynyl-6-fluoronaphthalen-2-ol]
K-Ras G12D
  IC50: 1.86 nM and 2.18 nM
K-Ras-wildtype
  IC50: 32.8 nM and 33.1 nM

## Oc1cc(Oc2nc3c(N4CC5CCC(C4)N5)nc(OCC45CCCN4CCC5)nc3s2)c2ccccc2c1 [Example 1, 4-{[7-(3,8-diazabicyclo[3.2.1]octan-3-yl)-5-(tetrahydro-1H-pyrrolizin-7a(5H)-ylmethoxy)[1,3]thiazolo[5,4-d]pyrimidin-2-yl]oxy}-2-naphthol]
K-Ras G12D
  IC50: 1000 nM
K-Ras-wildtype
  IC50: ≥ 20000 nM

## C#Cc1cccc2cc(O)cc(Oc3nc4c(N5CC6CCC(C5)N6)nc(OCC56CCCN5CCC6)nc4s3)c12 [Example 2, 4-{[7-(3,8-diazabicyclo[3.2.1]octan-3-yl)-5-(tetrahydro-1H-pyrrolizin-7a(5H)-ylmethoxy)[1,3]thiazolo[5,4-d]pyrimidin-2-yl]oxy}-5-ethynyl-2-naphthol]
K-Ras G12D
  IC50: 5.55 nM
K-Ras-wildtype
  IC50: 126 nM

## Oc1cc(Oc2nc3c(N4C[C@H]5CC[C@@H](C4)N5)nc(OCC45CCCN4CCC5)nc3s2)c2c(F)cccc2c1 [Example 3, 4-({7-[(1R,5S)-3,8-diazabicyclo[3.2.1]octan-3-yl]-5-[(tetrahydro-1H-pyrrolizin-7a(5H)-yl)methoxy][1,3]thiazolo[5,4-d]pyrimidin-2-yl}oxy)-5-fluoronaphthalen-2-ol]
K-Ras G12D
  IC50: 325 nM
K-Ras-wildtype
  IC50: 8140 nM

## Cc1cccc2cc(O)cc(Oc3nc4c(N5CC6CCC(C5)N6)nc(OCC56CCCN5CCC6)nc4s3)c12 [Example 4, 4-({7-(3,8-diazabicyclo[3.2.1]octan-3-yl)-5-[(tetrahydro-1H-pyrrolizin-7a(5H)-yl)methoxy][1,3]thiazolo[5,4-d]pyrimidin-2-yl}oxy)-5-methylnaphthalen-2-ol]
K-Ras G12D
  IC50: 79.8 nM
K-Ras-wildtype
  IC50: 1550 nM

## C#Cc1c(F)ccc2cc(O)cc(Oc3nc4c(N5C[C@H]6CC[C@@H](C5)N6)nc(OCC56CCCN5CCC6)nc4s3)c12 [Example 5, 4-({7-[(1R,5S)-3,8-diazabicyclo[3.2.1]octan-3-yl]-5-[(tetrahydro-1H-pyrrolizin-7a(5H)-yl)methoxy][1,3]thiazolo[5,4-d]pyrimidin-2-yl}oxy)-5-ethynyl-6-fluoronaphthalen-2-ol]
K-Ras G12D
  IC50: 3.79 nM
K-Ras-wildtype
  IC50: 69.1 nM

## Oc1cc(Nc2nc3c(N4CC5CCC(C4)N5)nc(OCC45CCCN4CCC5)nc3s2)c2ccccc2c1 [Example 7, 4-({7-(3,8-diazabicyclo[3.2.1]octan-3-yl)-5-[(tetrahydro-1H-pyrrolizin-7a(5H)-yl)methoxy][1,3]thiazolo[5,4-d]pyrimidin-2-yl}amino)naphthalen-2-ol]
K-Ras G12D
  IC50: 3360 nM
K-Ras-wildtype
  IC50: ≥ 20000 nM
